# Structures can show the parent of a compound that is named as a salt. Where two headings read alike, the source gives them in different places.
# Assays:
# [1] = tested on: vancomycin-resistant enterococci (E. faecalis NCTC-12201); assay: Agar plate dilution MIC, vancomycin-resistant enterococci E. faecalis NCTC-12201; type: cell-based; details: Enterococcus faecalis
# Experimental: (§1) Antibacterial test was performed in substantial accordance with agar plate dilution method based on Standard method of The Japan Society of Chemotherapy to determine minimum inhibitory concentration (MIC) of the respective test compounds against Staphylococcus aureus (S. aureus FDA 209P) and vancomycin-resistant enterococci (E. faecalis NCTC-12201). Also determined was MIC80 on clinically separated strains (27 strains) of MRSA. The inoculated amount was 10^6 CFU/ml and flomoxef (FMOX) and vancomycin (VCM) were used as controls.
# [2] = tested on: Staphylococcus aureus (S. aureus FDA 209P); assay: Agar plate dilution MIC, Staphylococcus aureus FDA 209P; type: cell-based; details: FDA209P, read-out: MIC S. aureus FDA 209P
# Experimental: as §1
# [3] = NCTC12201, agar plate dilution, inoculum 10^6 CFU/ml, vancomycin-resistant, read-out: MIC E. faecalis NCTC-12201
# [4] = agar plate dilution, inoculum 10^6 CFU/ml
Compound,"MIC [1, 3] [µg/mL]","MIC [2, 4] [µg/mL]","MIC ([1]; NCTC12201, read-out: MIC E. faecalis NCTC-12201) [µg/mL]",MIC [2] [µg/mL]
"O=C(Cc1cccs1)N[C@@H]1C(=O)N2C(C(=O)O)=C(C=CSc3cc(=O)c4ccc(N5CCOCC5)cc4s3)CS[C@H]12 [compound 10, 7-[2-(2-thienyl)acetamide]-3-[2-(7-morpholino-4-oxo-4H-1-benzothiopyran-2-yl)thiovinyl]-3-cephem-4-carboxylic acid]",6.25,0.05,–,–
"O=C(Cc1cccs1)N[C@@H]1C(=O)N2C(C(=O)O)=C(C=CSc3cc(=O)c4c(C(F)(F)F)cccc4s3)CS[C@H]12 [compound 5, 7-[2-(2-thienyl)acetamide]-3-[2-(4-oxo-5-trifluoromethyl-4H-1-benzothiopyran-2-yl)thiovinyl]-3-cephem-4-carboxylic acid]",1.56,0.05,–,–
"NCc1c(SC=CC2=C(C(=O)O)N3C(=O)[C@@H](NC(=O)Cc4cccs4)[C@H]3SC2)sc2sc(Cl)cc2c1=O [compound 31, 7-[2-(2-thienyl)acetamide]-3-[2-(5-aminomethyl-2-chloro-4-oxo-4H-thieno[2,3-b]thiopyran-6-yl)thiovinyl]-3-cephem-4-carboxylic acid.trifluoroacetate]",3.13,0.1,–,–
"CN[C@H](CC(C)C)C(=O)N[C@H]1C(=O)N[C@@H](CC(N)=O)C(=O)N[C@H]2C(=O)N[C@H]3C(=O)N[C@H](C(=O)N[C@H](C(=O)O)c4cc(O)cc(O)c4-c4cc3ccc4O)[C@H](O)c3ccc(c(Cl)c3)Oc3cc2cc(c3O[C@@H]2O[C@H](CO)[C@@H](O)[C@H](O)[C@H]2O[C@H]2C[C@](C)(N)[C@H](O)[C@H](C)O2)Oc2ccc(cc2Cl)[C@H]1O [VCM, vancomycin, reference compound]",–,–,> 1000,0.78
"O=C(Cc1cccs1)N[C@@H]1C(=O)N2C(C(=O)O)=C(C=CSc3sc4ccsc4c(=O)c3Br)CS[C@H]12 [compound 25, 7-[2-(2-thienyl)acetamide]-3-[2-(6-bromo-7-oxo-7H-thieno[3,2-b]thiopyran-5-yl)thiovinyl]-3-cephem-4-carboxylic acid]",0.78,0.013,–,–
"O=C(Cc1cccs1)N[C@@H]1C(=O)N2C(C(=O)O)=C(C=CSc3cc(=O)c4scc([N+](=O)[O-])c4s3)CS[C@H]12 [compound 26, 7-[2-(2-thienyl)acetamide]-3-[2-(3-nitro-7-oxo-7H-thieno[3,2-b]thiopyran-5-yl)thiovinyl]-3-cephem-4-carboxylic acid]",1.56,0.025,–,–
"O=C(Cc1cccs1)N[C@@H]1C(=O)N2C(C(=O)O)=C(C=CSc3cc(=O)c4cc(Cl)sc4s3)CS[C@H]12 [compound 21, 7-[2-(2-thienyl)acetamide]-3-[2-(2-chloro-4-oxo-4H-thieno[2,3-b]thiopyran-6-yl)thiovinyl]-3-cephem-4-carboxylic acid]",1.56,0.025,–,–
"O=C(Cc1cccs1)N[C@@H]1C(=O)N2C(C(=O)O)=C(C=CSc3cc(=O)c4ccc(N5CCCCC5)cc4s3)CS[C@H]12 [compound 19, 7-[2-(2-thienyl)acetamide]-3-[2-(4-oxo-7-piperidino-4H-1-benzothiopyran-2-yl)thiovinyl]-3-cephem-4-carboxylic acid]",3.13,0.1,–,–
"O=C(Cc1cccs1)N[C@@H]1C(=O)N2C(C(=O)O)=C(C=CSc3cc(=O)c4nccnc4s3)CS[C@H]12 [compound 24, 7-[2-(2-thienyl)acetamide]-3-[2-(8-oxo-8H-thiopyrano[2,3-b]pyrazin-6-yl)thiovinyl]-3-cephem-4-carboxylic acid]",3.13,≤ 0.006,–,–
"O=C(Cc1cccs1)N[C@@H]1C(=O)N2C(C(=O)O)=C(C=CSc3cc(=O)c4cccnc4s3)CS[C@H]12 [compound 30, 7-[2-(2-thienyl)acetamide]-3-[2-(4-oxo-4H-thiopyrano[2,3-b]pyridin-2-yl)thiovinyl]-3-cephem-4-carboxylic acid]",6.25,≤ 0.006,–,–
"N=C(N)SCc1ccc2c(=O)cc(SC=CC3=C(C(=O)O)N4C(=O)[C@@H](NC(=O)Cc5cccs5)[C@H]4SC3)sc2c1 [compound 28, 7-[2-(2-thienyl)acetamide]-3-[2-(7-isothiuroniummethyl-4-oxo-4H-1-benzothiopyran-2-yl)thiovinyl]-3-cephem-4-carboxylic acid.formate]",6.25,0.0254,–,–
"O=C(Cc1cccs1)N[C@@H]1C(=O)N2C(C(=O)O)=C(C=CSc3cc(=O)c4ccc(F)cc4s3)CS[C@H]12 [compound 2, 7-[2-(2-thienyl)acetamide]-3-[2-(7-fluoro-4-oxo-4H-1-benzothiopyran-2-yl)thiovinyl]-3-cephem-4-carboxylic acid]",0.78,0.05,–,–
"CO[C@@]1(NC(=O)CSC(F)F)C(=O)N2C(C(=O)O)=C(CSc3nnnn3CCO)CO[C@@H]21 [FMOX, flomoxef, reference compound]",> 100,0.2,–,–
"O=C(Cc1cccs1)N[C@@H]1C(=O)N2C(C(=O)O)=C(C=CSc3cc(=O)c4sccc4s3)CS[C@H]12 [compound 20, 7-[2-(2-thienyl)acetamide]-3-[2-(7-oxo-7H-thieno[3,2-b]thiopyran-5-yl)thiovinyl]-3-cephem-4-carboxylic acid]",1.56,0.025,–,–
"O=C(Cc1cccs1)N[C@@H]1C(=O)N2C(C(=O)O)=C(C=CSc3cc(=O)c4ccccc4s3)CS[C@H]12 [compound 1, 7-[2-(2-thienyl)acetamide]-3-[2-(4-oxo-4H-1-benzothiopyran-2-yl)thiovinyl]3-cephem-4-carboxylic acid]",3.13,0.2,–,–
"Nc1nc(/C(=N/O)C(=O)N[C@@H]2C(=O)N3C(C(=O)O)=C(C=CSc4cc(=O)c5sccc5s4)CS[C@H]23)cs1 [compound 23, 7-[2-hydroxyimino-2-(2-aminothiazol-4-yl)acetamide]-3-[2-(7-oxo-7H-thieno[3,2-b]thiopyran-5-yl)thiovinyl]-3-cephem-4-carboxylic acid]",3.13,0.1,–,–
"O=C(Cc1cccs1)N[C@@H]1C(=O)N2C(C(=O)O)=C(C=CSc3cc(=O)c4occc4s3)CS[C@H]12 [compound 9, 7-[2-(2-thienyl)acetamide]-3-[2-(7-oxo-7H-thiopyrano[3,2-b]furan-5-yl)thiovinyl]-3-cephem-4-carboxylic acid]",3.13,0.025,–,–
"Nc1nc(/C(=N/O)C(=O)N[C@@H]2C(=O)N3C(C(=O)O)=C(C=CSc4cc(=O)c5ccc(F)cc5s4)CS[C@H]23)cs1 [compound 18, 7-[2-hydroxyimino-2-(2-aminothiazol-4-yl)acetamide]-3-[2-(7-fluoro-4-oxo-4H-1-benzothiopyran-2-yl)thiovinyl]-3-cephem-4-carboxylic acid]",6.25,0.39,–,–
"Nc1nc(/C(=N/O)C(=O)N[C@@H]2C(=O)N3C(C(=O)O)=C(C=CSc4cc(=O)c5ccccc5s4)CS[C@H]23)cs1 [compound 11, sodium 7-[2-hydroxyimino-2-(2-aminothiazol-4-yl)acetamide]-3-[2-(4-oxo-4H-1-benzothiopyran-2-yl)thiovinyl]-3-cephem-4-carbonate]",1.56,0.1,–,–
"O=C(Cc1cccs1)N[C@@H]1C(=O)N2C(C(=O)O)=C(C=CSc3cc(=O)c4cc(F)c(F)c(F)c4s3)CS[C@H]12 [compound 7, 7-[2-(2-thienyl)acetamide]-3-[2-(6,7,8-trifluoro-4-oxo-4H-1-benzothiopyran-2-yl)thiovinyl]-3-cephem-4-carboxylic acid]",0.78,0.025,–,–
"O=C(Cc1ccccc1)N[C@@H]1C(=O)N2C(C(=O)O)=C(C=CSc3cc(=O)c4ccccc4s3)CS[C@H]12 [compound 27, 7-(2-phenylacetamide)-3-[2-(4-oxo-4H-1-benzothiopyran-2-yl)thiovinyl]-3-cephem-4-carboxylic acid]",3.13,0.025,–,–
"O=C(Cc1cccs1)N[C@@H]1C(=O)N2C(C(=O)O)=C(C=CSc3cc(=O)c4ccc(N5CCNCC5)cc4s3)CS[C@H]12 [compound 22, 7-[2-(2-thienyl)acetamide]-3-[2-(4-oxo-7-(piperazin-1-yl)-4H-1-benzothiopyran-2-yl)thiovinyl]-3-cephem-4-carboxylic acid.hydrochloride]",6.25,≤ 0.006,–,–
"COc1ccc2c(=O)cc(SC=CC3=C(C(=O)O)N4C(=O)[C@@H](NC(=O)Cc5cccs5)[C@H]4SC3)sc2c1 [compound 4, 7-[2-(2-thienyl)acetamide]-3-[2-(7-methoxy-4-oxo-4H-1-benzothiopyran-2-yl)thiovinyl]-3-cephem-4-carboxylic acid]",1.56,0.1,–,–
"Nc1nc(/C(=N/O)C(=O)N[C@@H]2C(=O)N3C(C(=O)O)=C(C=CSc4cc(=O)c5occc5s4)CS[C@H]23)cs1 [compound 17, 7-[2-hydroxyimino-2-(2-aminothiazol-4-yl)acetamide]-3-[2-(7-oxo-7H-thiopyrano[3,2-b]furan-5-yl)thiovinyl]-3-cephem-4-carboxylic acid]",6.25,0.39,–,–
"O=C(Cc1cccs1)N[C@@H]1C(=O)N2C(C(=O)O)=C(C=CSc3cc(=O)c4ccc(O)cc4s3)CS[C@H]12 [compound 8, 7-[2-(2-thienyl)acetamide]-3-[2-(7-hydroxy-4-oxo-4H-1-benzothiopyran-2-yl)thiovinyl]-3-cephem-4-carboxylic acid]",12.5,0.2,–,–
